Test system: Aedes aegypti
Assay: Mosquito (Aedes aegypti) Larval Assay
Settings: mosquito larvae in DMSO/water solution, death or paralysis following 24 hour incubation at 22° C., read-out: Minimum Efficacious Dose (MED)
Method: Mosquito (Aedes aegypti) Larval Assay
Formula (1) compounds were dissolved in DMSO and water. Five instar mosquito larvae were added to the solution and observed for death or paralysis following a 24 hour incubation period at 22° C. Endpoint data was recorded as Minimum Efficacious Dose (MED) in μM.

O=C(NCC(F)(F)F)C1CN(c2ccc(C3=NOC(c4cc(Cl)c(Cl)c(Cl)c4)(C(F)(F)F)C3)cc2Cl)C1 (centres unmarked) [Example 21, 1-{2-chloro-4-[5-(3,4,5-trichloro-phenyl)-5-trifluoromethyl-4,5-dihydro-isoxazol-3-yl]-phenyl}-azetidine-3-carboxylic acid (2,2,2-trifluoro-ethyl)-amide] gave a minimal effective concentration of no more than 100 µM.
Compound CN(C)C(=O)C1CN(c2ccc(C3=NOC(c4cc(Cl)c(Cl)c(Cl)c4)(C(F)(F)F)C3)cc2)C1 (centres unmarked) [Example 19, 1-{4-[5-(3,4,5-trichloro-phenyl)-5-trifluoromethyl-4,5-dihydro-isoxazol-3-yl]-phenyl}azetidine-3-carboxylic acid dimethylamide] has a minimal effective concentration of no more than 100 µM.
Compound O=C(NCC(F)(F)F)C1CN(c2ccc(C3=NOC(c4cc(Cl)c(Cl)c(Cl)c4)(C(F)(F)F)C3)cc2)C1 (centres unmarked) [Example 18, 1-{4-[5-(3,4,5-trichloro-phenyl)-5-trifluoromethyl-4,5-dihydro-isoxazol-3-yl]-phenyl}-azetidine-3-carboxylic acid (2,2,2-trifluoro-ethyl)-amide] has a minimal effective concentration of no more than 100 µM.
With CN(C)C(=O)C1CC(O)(c2ccc(C3=NOC(c4cc(Cl)c(Cl)c(Cl)c4)(C(F)(F)F)C3)cc2)C1 (centres unmarked) [Example 4, 3-hydroxy-3-{4-[5-(3,4,5-trichloro-phenyl)-5-trifluoromethyl-4,5-dihydro-isoxazol-3-yl]-phenyl}-cyclobutanecarboxylic acid dimethylamide] the minimal effective concentration was no more than 100 µM.
CNC(=O)C1CC(F)(c2ccc(C3=NOC(c4cc(Cl)c(Cl)c(Cl)c4)(C(F)(F)F)C3)cc2)C1 (centres unmarked) [Example 10, 3-fluoro-3-{4-[5-(3,4,5-trichloro-phenyl)-5-trifluoromethyl-4,5-dihydro-isoxazol-3-yl]-phenyl}-cyclobutanecarboxylic acid methylamide] showed a minimal effective concentration of no more than 100 µM.
Work on O=C(NC1CC(F)(c2ccc(C3=NOC(c4cc(Cl)c(Cl)c(Cl)c4)(C(F)(F)F)C3)cc2)C1)C1CC1 (centres unmarked) [Example 24, N-(3-fluoro-3-(4-(5-(3,4,5-trichlorophenyl)-5-(trifluoromethyl)-4,5-dihydroisoxazol-3-yl)phenyl)cyclobutyl)cyclopropanecarboxamide] yielded a minimal effective concentration of no more than 100 µM.
Compound CN(C)C(=O)C1CN(c2ccc(C3=NOC(c4cc(Cl)c(Cl)c(Cl)c4)(C(F)(F)F)C3)cc2Cl)C1 (centres unmarked) [Example 23, 1-{2-chloro-4-[5-(3,4,5-trichloro-phenyl)-5-trifluoromethyl-4,5-dihydro-isoxazol-3-yl]-phenyl}-azetidine-3-carboxylic acid dimethylamide] has a minimal effective concentration of no more than 100 µM.
In the case of O=C(NC1CC1)C1CN(c2ccc(C3=NOC(c4cc(Cl)c(Cl)c(Cl)c4)(C(F)(F)F)C3)cc2)C1 (centres unmarked) [Example 16, 1-{4-[5-(3,4,5-trichloro-phenyl)-5-trifluoromethyl-4,5-dihydro-isoxazol-3-yl]-phenyl}-azetidine-3-carboxylic acid cyclopropylamide], the minimal effective concentration is reported as no more than 100 µM.
O=C(NCC(F)(F)F)C1CC(O)(c2ccc(C3=NOC(c4cc(Cl)c(Cl)c(Cl)c4)(C(F)(F)F)C3)cc2)C1 (centres unmarked) [Example 1, 3-hydroxy-3-{4-[5-(3,4,5-trichloro-phenyl)-5-trifluoromethyl-4,5-dihydro-isoxazol-3-yl]-phenyl}-cyclobutanecarboxylic acid (2,2,2-trifluoro-ethyl)-amide] gave a minimal effective concentration of no more than 100 µM.
For O=C(NC1CC1)C1CC(O)(c2ccc(C3=NOC(c4cc(Cl)c(Cl)c(Cl)c4)(C(F)(F)F)C3)cc2)C1 (centres unmarked) [Example 2, 3-hydroxy-3-{4-[5-(3,4,5-trichloro-phenyl)-5-trifluoromethyl-4,5-dihydro-isoxazol-3-yl]-phenyl}-cyclobutanecarboxylic acid cyclopropylamide], the minimal effective concentration was no more than 100 µM.
O=C(NC1CC1)C1CN(c2ccc(C3=NOC(c4cc(Cl)c(Cl)c(Cl)c4)(C(F)(F)F)C3)cc2Cl)C1 (centres unmarked) [Example 22, 1-{2-chloro-4-[5-(3,4,5-trichloro-phenyl)-5-trifluoromethyl-4,5-dihydro-isoxazol-3-yl]-phenyl}-azetidine-3-carboxylic acid cyclopropylamide] showed a minimal effective concentration of no more than 100 µM.
In the case of O=C(CNC(=O)C1CC(F)(c2ccc(C3=NOC(c4cc(Cl)c(Cl)c(Cl)c4)(C(F)(F)F)C3)cc2)C1)NCC(F)(F)F (centres unmarked) [Example 15, 3-fluoro-N-(2-oxo-2-((2,2,2-trifluoroethyl)amino)ethyl)-3-(4-(5-(3,4,5-trichlorophenyl)-5-(trifluoromethyl)-4,5-dihydroisoxazol-3-yl)phenyl)cyclobutanecarboxamide], the minimal effective concentration is reported as no more than 100 µM.
Compound CNC(=O)C1CC(O)(c2ccc(C3=NOC(c4cc(Cl)c(Cl)c(Cl)c4)(C(F)(F)F)C3)cc2)C1 (centres unmarked) [Example 3, 3-hydroxy-3-{4-[5-(3,4,5-trichloro-phenyl)-5-trifluoromethyl-4,5-dihydro-isoxazol-3-yl]-phenyl}-cyclobutanecarboxylic acid methylamide] has a minimal effective concentration of no more than 100 µM.
Compound CNC(=O)C1CN(c2ccc(C3=NOC(c4cc(Cl)c(Cl)c(Cl)c4)(C(F)(F)F)C3)cc2)C1 (centres unmarked) [Example 17, 1-{4-[5-(3,4,5-trichloro-phenyl)-5-trifluoromethyl-4,5-dihydro-isoxazol-3-yl]-phenyl}-azetidine-3-carboxylic acid methylamide] has a minimal effective concentration of no more than 100 µM.
Compound CS(=O)(=O)CC(=O)NC1CC(F)(c2ccc(C3=NOC(c4cc(Cl)c(Cl)c(Cl)c4)(C(F)(F)F)C3)cc2)C1 (centres unmarked) [Example 25, N-(3-fluoro-3-(4-(5-(3,4,5-trichlorophenyl)-5-(trifluoromethyl)-4,5-dihydroisoxazol-3-yl)phenyl)cyclobutyl)-2-(methylsulfonyl)acetamide] has a minimal effective concentration of no more than 100 µM.
CCNC(=O)C1CC(F)(c2ccc(C3=NOC(c4cc(Cl)c(Cl)c(Cl)c4)(C(F)(F)F)C3)cc2)C1 (centres unmarked) [Example 14, 3-fluoro-3-{4-[5-(3,4,5-trichloro-phenyl)-5-trifluoromethyl-4,5-dihydro-isoxazol-3-yl]-phenyl}-cyclobutanecarboxylic acid ethylamide] was tested, and the minimal effective concentration was no more than 100 µM.
For CC(C)NC(=O)C1CC(F)(c2ccc(C3=NOC(c4cc(Cl)c(Cl)c(Cl)c4)(C(F)(F)F)C3)cc2)C1 (centres unmarked) [Example 13], the minimal effective concentration was no more than 100 µM.
For O=C(NCC(F)(F)F)C1CC(F)(c2ccc(C3=NOC(c4cc(Cl)c(Cl)c(Cl)c4)(C(F)(F)F)C3)cc2)C1 (centres unmarked) [Example 7, 3-fluoro-3-{4-[5-(3,4,5-trichloro-phenyl)-5-trifluoromethyl-4,5-dihydro-isoxazol-3-yl]-phenyl}-cyclobutanecarboxylic acid (2,2,2-trifluoro-ethyl)-amide], the minimal effective concentration was no more than 100 µM.
CNC(=O)C1CN(c2ccc(C3=NOC(c4cc(Cl)c(Cl)c(Cl)c4)(C(F)(F)F)C3)cc2Cl)C1 (centres unmarked) [Example 20, 1-{2-chloro-4-[5-(3,4,5-trichloro-phenyl)-5-trifluoromethyl-4,5-dihydro-isoxazol-3-yl]-phenyl}-azetidine-3-carboxylic acid methylamide] was tested, and the minimal effective concentration was no more than 100 µM.
CN(C)C(=O)C1CC(F)(c2ccc(C3=NOC(c4cc(Cl)c(Cl)c(Cl)c4)(C(F)(F)F)C3)cc2)C1 (centres unmarked) [Example 11, 3-fluoro-3-{4-[5-(3,4,5-trichloro-phenyl)-5-trifluoromethyl-4,5-dihydro-isoxazol-3-yl]-phenyl}-cyclobutanecarboxylic acid dimethylamide] gave a minimal effective concentration of no more than 100 µM.

Reference: patent publication US9061013B2, “Isoxazoline derivatives as antiparasitic agents” (Zoetis LLC, priority 2011, dated 2015)
